# Test results from US4999436A, “Aryl-substituted thiophene 3-ols, derivatives and analogs useful as lipoxgenase inhibitors” (Merck & Co., Inc., priority 1989, dated 1991).
# Where “and” joins values, the source holds several entries; their conditions need not be identical. Identical values can stand only once.
# How the values were obtained:
# 5-lipoxygenase = target: T1, 5-lipoxygenase (Rattus norvegicus, UniProt P12527); test: PMN5LO assay: inhibition of LTB4 production in A23187-stimulated rat peritoneal PMN (RIA); assay type: cell-based; settings: for IC50: estimated concentration required for 50% inhibition
# T1 construct: endogenous in cells; host or cells: casein-elicited peritoneal polymorphonuclear leukocytes of male Sprague-Dawley rats
# T1 sequence (P12527 1-673): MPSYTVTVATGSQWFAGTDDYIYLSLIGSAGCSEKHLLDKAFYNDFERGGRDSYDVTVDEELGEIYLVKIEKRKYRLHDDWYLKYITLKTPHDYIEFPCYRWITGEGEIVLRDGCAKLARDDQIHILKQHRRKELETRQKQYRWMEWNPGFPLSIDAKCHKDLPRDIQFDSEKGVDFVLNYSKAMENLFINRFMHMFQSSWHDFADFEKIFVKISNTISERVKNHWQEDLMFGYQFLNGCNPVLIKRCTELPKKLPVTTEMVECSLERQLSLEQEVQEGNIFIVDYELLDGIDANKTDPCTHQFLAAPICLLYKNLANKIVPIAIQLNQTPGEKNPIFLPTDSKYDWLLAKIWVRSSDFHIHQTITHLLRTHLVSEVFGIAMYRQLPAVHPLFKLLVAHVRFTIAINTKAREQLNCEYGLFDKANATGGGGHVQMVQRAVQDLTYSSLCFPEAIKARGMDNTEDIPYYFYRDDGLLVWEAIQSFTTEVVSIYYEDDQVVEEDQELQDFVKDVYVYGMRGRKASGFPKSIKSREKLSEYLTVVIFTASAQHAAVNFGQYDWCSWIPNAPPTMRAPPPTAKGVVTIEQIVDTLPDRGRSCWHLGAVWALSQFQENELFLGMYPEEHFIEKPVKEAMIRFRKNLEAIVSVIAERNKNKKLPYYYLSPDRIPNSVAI
# Protocol: (§1) Two screening methods were employed for the purposes of evaluating the biological activities of the compounds of the present invention. The PMN5LO assay is a direct measure of the capacity to inhibit 5-lipoxygenase. The second protocol, RSVM-CO, is a method of determining inhibition of cyclooxygenase enzyme activity and as such it serves as a negative control.
# Elicition of Rat Peritoneal polymorphonuclear leukoytes (PMN)
# Male Sprague-Dawley rats (about 350 grams) were injected intraperitoneally the day before use with 8 ml of 12% sodium caseinate. The next day the animals were killed by CO2 asphyxiation and the peritoneal cavity lavaged twice with 20 ml of Hanks balanced salts containing 15 mM HEPES (pH 7.4), 1.4 mM Ca^++ and 0.7 mM Mg^++ (Hepes-Hanks). The suspensions were filtered through plastic mesh and centrifuged at […] for 5 minutes. The cells were resuspended in 50 ml Hepes-Hanks and recentrifuged. The PMN pellets were combined and suspended at 1.25×10^7 cells/ml.
# The cell suspension was then diluted 1:10, preincubated 5 minutes at 37° C. and distributed in 200 μl aliquots in the wells of 96 well microtiter plates. The wells had previously received samples of the compounds of the present invention, controls, etc., in 25 μl of 0.001% fatty acidfree BSA in Hepes-Hanks. The plates were incubated 2 minutes at 37° C. and then the cells were stimulated to produce LTB4 by the addition of 25 μl of 100 μM calcium ionophore, designated A23187. After 4 minutes at 37° C. the plates were frozen in dry ice.
# Radioimmunoassay (RIA) of LTB4
# The frozen plates were thawed to 4° C. and 25 μl aliquots removed to V well plates. Antibody to LTB4 (50 μl) was added and, after 15 minutes at room temperature, 50 μl of ^3 H-LTB4 was added and the plates were stored overnight at 4° C. to allow equilibration. The next day the "free" 3H-LTB4 was removed by adsorption to dextran coated charcoal [90 μl per well of a 4% charcoal suspension with 0.25% Dextran T-70 in 10 mM potassium phosphate (pH 7.3) containing lmM EDTA and 0.25 mM thimerasol] during a 10 minute ice temperature incubation. The charcoal was removed by a 10 minute centrifugation at 200 sg. Aliquots of the supernatant were counted in a Packard 460, analyzed in a Masscomp computer and the data drawn up as % inhibition of LTB4 production.
# cyclooxygenase = target: T2, cyclooxygenase (Ovis aries, UniProt P05979); test: RSVM-CO: Ram Seminal Vesicle Microsomal Cyclooxygenase assay; assay type: biochemical; settings: for inhibition at 0.1 µg/mL: 0.1 μg/ml; for inhibition at 1 µg/mL: 1 μg/ml
# T2 construct: Ram seminal vesicular glands were trimmed of fat; from tissue; host or cells: ram seminal vesicular glands, microsomal pellet (105K xg)
# T2 sequence (P05979 25-600): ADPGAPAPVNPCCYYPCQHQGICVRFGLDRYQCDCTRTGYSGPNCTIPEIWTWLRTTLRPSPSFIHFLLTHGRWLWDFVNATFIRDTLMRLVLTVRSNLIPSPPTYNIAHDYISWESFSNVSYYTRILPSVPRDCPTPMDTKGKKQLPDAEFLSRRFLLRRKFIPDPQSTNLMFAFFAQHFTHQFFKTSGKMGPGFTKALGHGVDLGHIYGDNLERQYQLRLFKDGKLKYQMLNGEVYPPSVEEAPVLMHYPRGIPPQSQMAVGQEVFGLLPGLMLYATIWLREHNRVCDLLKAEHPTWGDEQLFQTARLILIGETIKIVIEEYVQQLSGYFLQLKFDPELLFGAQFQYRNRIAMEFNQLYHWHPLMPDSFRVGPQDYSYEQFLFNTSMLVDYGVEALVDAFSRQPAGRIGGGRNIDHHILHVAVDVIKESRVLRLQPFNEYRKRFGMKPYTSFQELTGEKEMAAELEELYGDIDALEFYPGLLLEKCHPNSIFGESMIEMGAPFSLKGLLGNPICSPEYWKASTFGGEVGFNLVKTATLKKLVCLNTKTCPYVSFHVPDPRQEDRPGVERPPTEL
# Source text: as §1
# B. Ram Seminal Vesicle Microsomal Cyclooxygenase (RSVM-CO) Assay Protocol
# Ram seminal vesicular glands were trimmed of fat, 50 grams diced into 250 mls ice cold 0.1 M potassium phosphate (pH 7.6) buffer and homogenized using a Brinkman Polytron. The suspension was centrifuged 10 minutes at […] (4° C.) and the supernatant filtered through two cheesecloth layers. The filtrate was centrifuged 160 minutes at 105K xg, the supernatant thereof discarded, and the pellet surface rinsed with a small volume of buffer. The pellets were combined in a small volume, briefly homogenized with the Polytron and frozen in 0.5 ml aliquots at -80° C. The protein concentration was about 50 mg/ml.
# The thawed enzyme was diluted 1:63 with 0.125 M Na EDTA (pH 8.0) containing 50 μg/ml BSA. A substrate-cofactor premix was prepared with 66 μM ^14 C-arachidonic acid (about 20K cpm/12.5 μl) in 500 μl 0.125 M Na EDTA (pH 8.0) plus 10 μl 50 mM hydroquinone and 10 μl 200 mM glutathione. To each sample well in the 96 well plate, agents dissolved in 0.5 μ DMSO were added, followed by 12.5 μl of the diluted enzyme. After a 4 minute preincubation at room temperature, 12.5 μl of the substrate-cofactor mix was added to start the reaction. The reaction was terminated after 20 minutes at room temperature by adding 25 μl of methanol containing 200 μg PGE2 and 400 μg AA per ml.
# The entire reaction mixture was spotted onto a preadsorbent silica gel GF thin layer plate and, after air drying 45 minutes, developed 12 cm in ethyl acetate:glacial acetic acid (99:1).
# The developed lanes were scanned for the distribution of radiolabel using a Bioscan Imaging Detector and the integrated peaks compared to standards and controls yielding % inhibition.
inhibition at 0.01 µg/mL (cyclooxygenase; 0.01 μg/ml) [%],Structure (SMILES),PMN5LO % inhibition (5-lipoxygenase; 0.11 μg/ml),inhibition at 0.11 µg/mL (5-lipoxygenase; 0.11 μg/ml) [%],PMN5LO % inhibition (5-lipoxygenase; 0.33 μg/ml) [%],inhibition at 0.33 µg/mL (5-lipoxygenase; 0.33 μg/ml) [%],IC50 (5-lipoxygenase),inhibition at 0.1 µg/mL (cyclooxygenase) [%],inhibition at 1 µg/mL (cyclooxygenase) [%],PMN5LO % inhibition (5-lipoxygenase; 0.012 μg/ml) [%],inhibition at 0.012 µg/mL (5-lipoxygenase; 0.012 μg/ml) [%],PMN5LO % inhibition (5-lipoxygenase; 1 μg/ml) [%],inhibition at 1 µg/mL (5-lipoxygenase; 1 μg/ml) [%],inhibition at 0.037 µg/mL (5-lipoxygenase; 0.037 μg/ml) [%]
28,"COCOc1cc(-c2ccccc2)sc1-c1ccccc1 [Compound 12, 2,5-Diphenyl-3-(methoxymethoxy)-thiophene]",40%,31,84,74,580 nM and 350 nM,0,100,–,–,–,–,–
–,"COc1ccc(-c2sc(-c3ccccc3)cc2OC(C)=O)cc1 [Compound 14, 3-Acetoxy-2-(4'-methoxyphenyl)-5-phenylthiophene]",91% and 46%,–,85,100,80 nM,0,–,12,24,80,100,–
–,"CC(=O)Oc1cscc1-c1ccccc1 [Compound 15, 3-Acetoxy-4-phenylthiophene]",–,0,–,0,–,0,0,–,9,–,10,0
–,"CC(=O)Oc1cc(-c2ccccc2)sc1-c1cccnc1 [Compound 16, 3-Acetoxy-2-(3'-pyridyl)-5-phenylthiophene]",–,–,84,94,230 nM,0,0,–,–,88,100,–
